Measured values: ChEMBL document CHEMBL1201862, “PubChem BioAssay data set” (2004)
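Following 48 hours of exposure in 96-well plates, responses at five concentrations were used to interpolate endpoints linearly. GI50 = concentration required for 50% inhibition of growth.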 Active and inactive are the calls of the source. Rule as the data show it: active = GI50 up to about 1.1 µM and inactive = higher.

Key:
Test in all cases: inhibition of tumour cell growth, NCI panel, 48 h
786-0 = system: 786-0
A498 = system: A498
A549 = system: A549
ACHN = system: ACHN
BT-549 = system: BT-549
CAKI-1 = system: CAKI-1
CCRF-CEM = system: CCRF-CEM
COLO 205 = system: COLO 205
DU-145 = system: DU-145
EKVX = system: EKVX
HCC 2998 = system: HCC 2998
HCT-116 = system: HCT-116
HCT-15 = system: HCT-15
HOP-62 = system: HOP-62
HOP-92 = system: HOP-92
HT-29 = system: HT-29
Hs-578T = system: Hs-578T
IGROV-1 = system: IGROV-1
K562 = system: K562
LOX IMVI = system: LOX IMVI
MCF7 = system: MCF7
MDA-MB-231 = system: MDA-MB-231
MDA-MB-435 = system: MDA-MB-435
MDA-N = system: MDA-N
MOLT-4 = system: MOLT-4
NCI-H226 = system: NCI-H226
NCI-H23 = system: NCI-H23
NCI-H460 = system: NCI-H460
NCI/ADR-RES = system: NCI/ADR-RES
OVCAR-3 = system: OVCAR-3
OVCAR-4 = system: OVCAR-4
OVCAR-5 = system: OVCAR-5
OVCAR-8 = system: OVCAR-8
PC-3 = system: PC-3
RPMI-8226 = system: RPMI-8226
RXF 393 = system: RXF 393
SF-268 = system: SF-268
SF-295 = system: SF-295
SF-539 = system: SF-539
SK-MEL-28 = system: SK-MEL-28
SK-MEL-2 = system: SK-MEL-2
SK-MEL-5 = system: SK-MEL-5
SK-OV-3 = system: SK-OV-3
SN12C = system: SN12C
SNB-19 = system: SNB-19
SNB-75 = system: SNB-75
SR = system: SR
SW-620 = system: SW-620
TK-10 = system: TK-10
U-251 = system: U-251
UACC-257 = system: UACC-257
UACC-62 = system: UACC-62
UO-31 = system: UO-31
HL-60 = system: HL-60
KM12 = system: KM12
M14 = system: M14
Malme-3M = system: Malme-3M
NCI-H522 = system: NCI-H522
T47D = system: T47D

In the case of CN1C(=O)[C@@H]2[C@@H]3c4ccccc4N(S(=O)(=O)C(F)(F)F)[C@@H]3c3[nH]c4ccccc4c3[C@@H]2C1=O, the GI50 (786-0) is reported as 63.7 µM (inactive), the GI50 (A498) is reported as > 100 µM (inactive) and the GI50 (A549) is reported as 11.2 µM (inactive). The GI50 (ACHN) was 25.1 µM (inactive), the GI50 (BT-549) was > 100 µM (inactive) and the GI50 (CAKI-1) was > 100 µM (inactive). For the same molecule, the GI50 (CCRF-CEM) was 25.2 µM (inactive), the GI50 (COLO 205) was 7.91 µM (inactive) and the GI50 (DU-145) was 98.2 µM (inactive). The GI50 (EKVX) was 5.74 µM (inactive), the GI50 (HCC 2998) was > 100 µM (inactive) and the GI50 (HCT-116) was 17.2 µM (inactive). The GI50 (HCT-15) was 16.9 µM, the GI50 (HOP-62) was > 100 µM (inactive) and the GI50 (HOP-92) was 1.63 µM (inactive). For the same molecule, the GI50 (HT-29) was 7.67 µM (inactive), the GI50 (Hs-578T) was 19.7 µM (inactive) and the GI50 (IGROV-1) was 0.175 µM (active). The GI50 (K562) was 7.28 µM (inactive), the GI50 (LOX IMVI) was > 100 µM (inactive) and the GI50 (MCF7) was 11.6 µM (inactive). The GI50 (MDA-MB-231) was 13.2 µM (inactive), the GI50 (MDA-MB-435) was > 100 µM (inactive) and the GI50 (MDA-N) was > 100 µM (inactive). For the same molecule, the GI50 (MOLT-4) was 4.3 µM (inactive), the GI50 (NCI-H226) was 5.52 µM (inactive) and the GI50 (NCI-H23) was 54.1 µM (inactive). For the same molecule, the GI50 (NCI-H460) was 21.5 µM (inactive), the GI50 (NCI/ADR-RES) was 26.3 µM (inactive) and the GI50 (OVCAR-3) was 22.6 µM (inactive). For the same molecule, the GI50 (OVCAR-4) was 82.4 µM (inactive), the GI50 (OVCAR-5) was > 100 µM (inactive) and the GI50 (OVCAR-8) was 83 µM (inactive). The GI50 (PC-3) was 8.47 µM (inactive), the GI50 (RPMI-8226) was 8.39 µM (inactive) and the GI50 (RXF 393) was 10.3 µM (inactive). The GI50 (SF-268) was > 100 µM (inactive), the GI50 (SF-295) was 50.7 µM (inactive) and the GI50 (SF-539) was > 100 µM (inactive). The GI50 (SK-MEL-28) was > 100 µM (inactive), the GI50 (SK-MEL-2) was 81.5 µM (inactive) and the GI50 (SK-MEL-5) was 36.4 µM (inactive). The GI50 (SK-OV-3) was > 100 µM (inactive), the GI50 (SN12C) was > 100 µM (inactive) and the GI50 (SNB-19) was > 100 µM (inactive). The GI50 (SNB-75) was 13.2 µM (inactive), the GI50 (SR) was 4.9 µM (inactive) and the GI50 (SW-620) was > 100 µM (inactive). For the same molecule, the GI50 (TK-10) was 47.8 µM (inactive), the GI50 (U-251) was 31.3 µM (inactive) and the GI50 (UACC-257) was 62.5 µM (inactive). For the same molecule, the GI50 (UACC-62) was > 100 µM (inactive) and the GI50 (UO-31) was 14.1 µM (inactive).
In the case of CC1OCC2OC(C)OC(C3C4=C(CC(C)(C)CC4=O)OC4=C3C(=O)CC(C)(C)C4)C2O1 (stereo not drawn), the GI50 (786-0) is reported as > 100 µM (inactive), the GI50 (A498) is reported as > 100 µM (inactive) and the GI50 (A549) is reported as > 100 µM (inactive). The GI50 (ACHN) was > 100 µM (inactive), the GI50 (CAKI-1) was > 100 µM (inactive) and the GI50 (CCRF-CEM) was > 100 µM (inactive). For the same molecule, the GI50 (COLO 205) was > 100 µM (inactive), the GI50 (DU-145) was > 100 µM (inactive) and the GI50 (EKVX) was > 100 µM (inactive). For the same molecule, the GI50 (HCC 2998) was > 100 µM (inactive), the GI50 (HCT-116) was > 100 µM (inactive) and the GI50 (HCT-15) was greater than 100 µM. For the same molecule, the GI50 (HL-60) was > 100 µM (inactive), the GI50 (HOP-62) was > 100 µM (inactive) and the GI50 (HOP-92) was > 100 µM (inactive). The GI50 (HT-29) was > 100 µM (inactive), the GI50 (Hs-578T) was > 100 µM (inactive) and the GI50 (K562) was > 100 µM (inactive). The GI50 (KM12) was > 100 µM (inactive), the GI50 (LOX IMVI) was > 100 µM (inactive) and the GI50 (M14) was > 100 µM (inactive). For the same molecule, the GI50 (MCF7) was > 100 µM (inactive), the GI50 (MDA-MB-231) was > 100 µM (inactive) and the GI50 (MDA-MB-435) was > 100 µM (inactive). The GI50 (MDA-N) was > 100 µM (inactive), the GI50 (MOLT-4) was > 100 µM (inactive) and the GI50 (Malme-3M) was > 100 µM (inactive). For the same molecule, the GI50 (NCI-H226) was > 100 µM (inactive), the GI50 (NCI-H23) was > 100 µM (inactive) and the GI50 (NCI-H460) was > 100 µM (inactive). For the same molecule, the GI50 (NCI-H522) was > 100 µM (inactive), the GI50 (NCI/ADR-RES) was > 100 µM (inactive) and the GI50 (OVCAR-3) was > 100 µM (inactive). For the same molecule, the GI50 (OVCAR-5) was > 100 µM (inactive), the GI50 (OVCAR-8) was > 100 µM (inactive) and the GI50 (PC-3) was > 100 µM (inactive). The GI50 (RPMI-8226) was > 100 µM (inactive), the GI50 (RXF 393) was > 100 µM (inactive) and the GI50 (SF-268) was > 100 µM (inactive). The GI50 (SF-295) was > 100 µM (inactive), the GI50 (SF-539) was > 100 µM (inactive) and the GI50 (SK-MEL-28) was > 100 µM (inactive). The GI50 (SK-MEL-2) was > 100 µM (inactive), the GI50 (SK-MEL-5) was > 100 µM (inactive) and the GI50 (SK-OV-3) was > 100 µM (inactive). The GI50 (SN12C) was > 100 µM (inactive), the GI50 (SNB-19) was > 100 µM (inactive) and the GI50 (SNB-75) was > 100 µM (inactive). The GI50 (SR) was > 100 µM (inactive), the GI50 (SW-620) was > 100 µM (inactive) and the GI50 (T47D) was > 100 µM (inactive). For the same molecule, the GI50 (TK-10) was > 100 µM (inactive), the GI50 (UACC-257) was > 100 µM (inactive) and the GI50 (UACC-62) was > 100 µM (inactive). The GI50 (UO-31) was > 100 µM (inactive).
